Data from ChEMBL document CHEMBL1201862, “PubChem BioAssay data set” (2004).
The source made the active and inactive calls.

Key:
[1] = target: Mitochondrial peptide methionine sulfoxide reductase (Bos taurus, UniProt P54149); experiment: Absorbance-based biochemical high throughput dose response assay for activators of Methionine sulfoxide reductase A (MsrA).; format: functional
ORF 73 = target: T1, ORF 73 (Human herpesvirus 8, UniProt O40947); experiment: inhibitors of C-LANA binding to LBS DNA, dose response, biochemical, fluorescence polarization, cherry-picked samples (AID 504725); parameters: species or system Human gammaherpesvirus 8;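 further: fluorescence polarization of a labeled DNA duplex reporting LANA DNA binding; potency is for inhibitors that block LANA binding to the DNA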
T1 sequence (O40947 whole entry): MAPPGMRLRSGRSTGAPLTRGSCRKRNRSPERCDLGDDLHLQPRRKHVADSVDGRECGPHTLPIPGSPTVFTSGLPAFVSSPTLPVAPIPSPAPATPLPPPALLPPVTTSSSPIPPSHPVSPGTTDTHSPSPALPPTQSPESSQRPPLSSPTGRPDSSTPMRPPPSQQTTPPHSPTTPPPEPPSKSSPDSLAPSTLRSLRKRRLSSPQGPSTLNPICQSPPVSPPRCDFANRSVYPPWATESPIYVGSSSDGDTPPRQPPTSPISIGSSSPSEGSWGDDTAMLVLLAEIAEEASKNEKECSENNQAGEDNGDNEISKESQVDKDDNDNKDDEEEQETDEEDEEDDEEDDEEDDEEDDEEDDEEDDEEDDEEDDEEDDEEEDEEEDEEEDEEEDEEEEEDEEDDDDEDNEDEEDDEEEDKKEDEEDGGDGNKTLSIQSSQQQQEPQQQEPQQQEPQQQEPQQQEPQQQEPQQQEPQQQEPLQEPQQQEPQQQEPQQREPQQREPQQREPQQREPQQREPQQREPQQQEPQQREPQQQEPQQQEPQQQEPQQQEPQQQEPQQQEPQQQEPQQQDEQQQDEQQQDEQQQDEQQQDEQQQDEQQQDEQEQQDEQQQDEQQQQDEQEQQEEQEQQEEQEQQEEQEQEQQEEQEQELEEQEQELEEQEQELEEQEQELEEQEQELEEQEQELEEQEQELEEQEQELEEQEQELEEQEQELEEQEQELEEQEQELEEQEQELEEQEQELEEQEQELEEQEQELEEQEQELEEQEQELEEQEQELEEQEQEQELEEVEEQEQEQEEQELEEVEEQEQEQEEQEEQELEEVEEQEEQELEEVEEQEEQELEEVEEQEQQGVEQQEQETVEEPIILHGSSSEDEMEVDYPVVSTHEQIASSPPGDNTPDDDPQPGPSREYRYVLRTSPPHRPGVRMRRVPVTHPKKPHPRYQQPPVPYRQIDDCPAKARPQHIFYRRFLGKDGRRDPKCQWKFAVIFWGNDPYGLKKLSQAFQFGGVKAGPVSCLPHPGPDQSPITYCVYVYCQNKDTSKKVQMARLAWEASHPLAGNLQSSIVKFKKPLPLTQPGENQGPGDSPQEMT

[2] = target: 1-phosphatidylinositol 4,5-bisphosphate phosphodiesterase beta-3 (Homo sapiens, UniProt Q01970); experiment: Fluorescence-based biochemical high throughput dose response assay to identify inhibitors of phospholipase C isozymes (PLC-B3).
[3] = target: T2, Zinc finger protein mex-5 (Caenorhabditis elegans, UniProt Q9XUB2); experiment: MEX-5/TCR-2 RNA interaction inhibitors, dose response, biochemical, C. elegans, fluorescence polarization (AID 1960)
T2 sequence (Q9XUB2 whole entry): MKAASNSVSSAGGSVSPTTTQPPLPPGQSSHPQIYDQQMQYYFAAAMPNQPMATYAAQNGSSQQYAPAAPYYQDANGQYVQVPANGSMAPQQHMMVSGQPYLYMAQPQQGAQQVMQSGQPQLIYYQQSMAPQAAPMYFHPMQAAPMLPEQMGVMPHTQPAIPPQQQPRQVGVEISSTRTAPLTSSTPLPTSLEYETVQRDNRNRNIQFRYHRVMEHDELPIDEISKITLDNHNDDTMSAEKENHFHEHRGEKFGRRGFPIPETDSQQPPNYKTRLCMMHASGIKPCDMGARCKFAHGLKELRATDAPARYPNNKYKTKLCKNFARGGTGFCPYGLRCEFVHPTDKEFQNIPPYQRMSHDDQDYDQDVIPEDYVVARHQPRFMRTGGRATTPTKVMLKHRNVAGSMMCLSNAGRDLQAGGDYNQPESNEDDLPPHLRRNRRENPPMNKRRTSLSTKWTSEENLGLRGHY

[4] = target: Mitogen-activated protein kinase kinase kinase kinase 4 (Homo sapiens, UniProt O95819); format: functional
Sequence of Mitogen-activated protein kinase kinase kinase kinase 4 (O95819 whole entry): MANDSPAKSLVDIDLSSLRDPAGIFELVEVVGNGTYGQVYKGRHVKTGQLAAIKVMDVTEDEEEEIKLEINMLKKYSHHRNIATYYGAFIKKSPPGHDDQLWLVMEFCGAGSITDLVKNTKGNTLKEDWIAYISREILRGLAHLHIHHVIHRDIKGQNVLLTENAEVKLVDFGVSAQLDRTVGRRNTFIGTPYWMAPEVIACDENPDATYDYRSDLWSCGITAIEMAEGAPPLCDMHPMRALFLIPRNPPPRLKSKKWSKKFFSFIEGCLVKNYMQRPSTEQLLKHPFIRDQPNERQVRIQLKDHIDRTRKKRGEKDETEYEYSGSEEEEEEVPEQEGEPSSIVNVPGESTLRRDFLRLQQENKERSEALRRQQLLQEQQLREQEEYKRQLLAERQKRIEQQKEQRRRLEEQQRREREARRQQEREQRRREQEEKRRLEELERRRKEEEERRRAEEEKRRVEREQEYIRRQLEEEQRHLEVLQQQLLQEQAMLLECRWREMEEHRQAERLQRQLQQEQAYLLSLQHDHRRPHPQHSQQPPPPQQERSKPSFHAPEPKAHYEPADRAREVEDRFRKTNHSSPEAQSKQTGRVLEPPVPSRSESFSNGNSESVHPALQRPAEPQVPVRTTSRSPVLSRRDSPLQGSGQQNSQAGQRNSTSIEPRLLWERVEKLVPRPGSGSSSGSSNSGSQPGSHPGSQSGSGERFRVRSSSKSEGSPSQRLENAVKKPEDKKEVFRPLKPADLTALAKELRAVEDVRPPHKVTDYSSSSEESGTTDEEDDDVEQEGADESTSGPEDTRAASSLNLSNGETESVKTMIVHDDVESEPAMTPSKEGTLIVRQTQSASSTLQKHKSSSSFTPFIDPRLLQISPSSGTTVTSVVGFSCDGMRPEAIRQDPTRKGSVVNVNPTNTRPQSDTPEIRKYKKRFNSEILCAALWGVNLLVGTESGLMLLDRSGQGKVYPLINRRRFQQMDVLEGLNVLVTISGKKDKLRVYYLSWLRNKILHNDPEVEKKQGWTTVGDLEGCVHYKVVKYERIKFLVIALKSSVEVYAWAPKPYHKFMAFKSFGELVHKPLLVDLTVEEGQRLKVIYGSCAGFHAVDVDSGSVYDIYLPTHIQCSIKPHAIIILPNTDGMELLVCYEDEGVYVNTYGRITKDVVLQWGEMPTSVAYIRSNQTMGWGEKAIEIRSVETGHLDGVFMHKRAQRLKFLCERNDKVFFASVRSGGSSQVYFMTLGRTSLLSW

[5] = target: Dual specificity mitogen-activated protein kinase kinase 1 (Homo sapiens, UniProt Q02750); experiment: Navigating the Kinome. Panel member name: MAP2K1; format: functional
Sequence of Dual specificity mitogen-activated protein kinase kinase 1 (Q02750 whole entry): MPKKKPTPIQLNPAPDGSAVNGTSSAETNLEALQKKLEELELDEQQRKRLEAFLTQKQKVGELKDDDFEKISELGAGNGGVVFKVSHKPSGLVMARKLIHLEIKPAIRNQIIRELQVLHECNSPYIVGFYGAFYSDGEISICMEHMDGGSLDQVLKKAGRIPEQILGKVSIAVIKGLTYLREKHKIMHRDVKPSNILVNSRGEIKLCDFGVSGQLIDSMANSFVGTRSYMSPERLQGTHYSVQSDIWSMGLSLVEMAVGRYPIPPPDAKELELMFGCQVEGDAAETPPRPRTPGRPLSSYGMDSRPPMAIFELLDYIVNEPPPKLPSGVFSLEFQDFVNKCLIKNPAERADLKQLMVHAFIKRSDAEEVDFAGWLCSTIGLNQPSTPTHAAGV

[6] = target: Platelet-derived growth factor receptor alpha (Homo sapiens, UniProt P16234); experiment: Navigating the Kinome. Panel member name: PDGFRA; format: functional
[7] = target: Platelet-derived growth factor receptor beta (Homo sapiens, UniProt P09619); format: functional;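 further: value comes from a kinome panel, with PDGFRB tested as one panel member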
[8] = target: Tyrosine-protein kinase receptor TYRO3 (Homo sapiens, UniProt Q06418); format: functional;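 further: TYRO3 value obtained as one member of a kinome-wide profiling panel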
Sequence of Tyrosine-protein kinase receptor TYRO3 (Q06418 whole entry): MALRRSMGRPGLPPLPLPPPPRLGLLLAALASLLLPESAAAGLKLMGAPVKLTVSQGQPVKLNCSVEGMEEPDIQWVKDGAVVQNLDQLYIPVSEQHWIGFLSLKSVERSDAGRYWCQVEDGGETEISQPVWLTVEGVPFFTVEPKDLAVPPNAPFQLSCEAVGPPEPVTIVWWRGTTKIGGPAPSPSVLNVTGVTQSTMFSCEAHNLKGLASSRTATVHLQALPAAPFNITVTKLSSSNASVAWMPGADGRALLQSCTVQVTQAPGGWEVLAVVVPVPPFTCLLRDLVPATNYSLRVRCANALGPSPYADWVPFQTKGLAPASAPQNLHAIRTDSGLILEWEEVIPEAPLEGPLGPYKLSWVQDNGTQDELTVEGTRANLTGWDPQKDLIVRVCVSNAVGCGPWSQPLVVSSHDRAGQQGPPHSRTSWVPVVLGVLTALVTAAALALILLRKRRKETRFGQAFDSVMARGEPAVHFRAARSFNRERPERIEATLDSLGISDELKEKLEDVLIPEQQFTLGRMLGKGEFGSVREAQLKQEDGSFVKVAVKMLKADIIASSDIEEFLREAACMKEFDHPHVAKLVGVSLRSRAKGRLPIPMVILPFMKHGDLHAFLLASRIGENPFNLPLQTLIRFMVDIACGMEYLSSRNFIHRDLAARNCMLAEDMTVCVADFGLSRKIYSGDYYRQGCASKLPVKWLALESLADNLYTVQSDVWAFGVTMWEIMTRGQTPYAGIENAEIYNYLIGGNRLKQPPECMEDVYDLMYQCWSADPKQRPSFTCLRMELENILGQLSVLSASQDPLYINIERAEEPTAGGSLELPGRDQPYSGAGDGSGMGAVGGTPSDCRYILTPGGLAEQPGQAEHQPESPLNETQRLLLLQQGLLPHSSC

[9] = target: Dual specificity protein kinase CLK4 (Homo sapiens, UniProt Q9HAZ1); format: functional
[10] = target: cAMP-dependent protein kinase catalytic subunit PRKX (Homo sapiens, UniProt P51817); format: functional
Sequence of cAMP-dependent protein kinase catalytic subunit PRKX (P51817 whole entry): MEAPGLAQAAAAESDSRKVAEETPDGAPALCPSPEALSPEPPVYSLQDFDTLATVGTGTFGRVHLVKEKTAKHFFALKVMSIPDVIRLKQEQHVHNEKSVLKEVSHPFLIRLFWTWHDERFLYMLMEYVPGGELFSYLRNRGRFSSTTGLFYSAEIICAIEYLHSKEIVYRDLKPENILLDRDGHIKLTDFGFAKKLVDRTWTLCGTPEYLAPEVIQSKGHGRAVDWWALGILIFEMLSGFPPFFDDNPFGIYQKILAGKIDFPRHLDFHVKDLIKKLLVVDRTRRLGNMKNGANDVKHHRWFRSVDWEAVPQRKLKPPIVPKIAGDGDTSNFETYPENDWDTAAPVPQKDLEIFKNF

[11] = target: Dual specificity tyrosine-phosphorylation-regulated kinase 1B (Homo sapiens, UniProt Q9Y463); experiment: Navigating the Kinome. Panel member name: DYRK1B; format: functional
Sequence of Dual specificity tyrosine-phosphorylation-regulated kinase 1B (Q9Y463 whole entry): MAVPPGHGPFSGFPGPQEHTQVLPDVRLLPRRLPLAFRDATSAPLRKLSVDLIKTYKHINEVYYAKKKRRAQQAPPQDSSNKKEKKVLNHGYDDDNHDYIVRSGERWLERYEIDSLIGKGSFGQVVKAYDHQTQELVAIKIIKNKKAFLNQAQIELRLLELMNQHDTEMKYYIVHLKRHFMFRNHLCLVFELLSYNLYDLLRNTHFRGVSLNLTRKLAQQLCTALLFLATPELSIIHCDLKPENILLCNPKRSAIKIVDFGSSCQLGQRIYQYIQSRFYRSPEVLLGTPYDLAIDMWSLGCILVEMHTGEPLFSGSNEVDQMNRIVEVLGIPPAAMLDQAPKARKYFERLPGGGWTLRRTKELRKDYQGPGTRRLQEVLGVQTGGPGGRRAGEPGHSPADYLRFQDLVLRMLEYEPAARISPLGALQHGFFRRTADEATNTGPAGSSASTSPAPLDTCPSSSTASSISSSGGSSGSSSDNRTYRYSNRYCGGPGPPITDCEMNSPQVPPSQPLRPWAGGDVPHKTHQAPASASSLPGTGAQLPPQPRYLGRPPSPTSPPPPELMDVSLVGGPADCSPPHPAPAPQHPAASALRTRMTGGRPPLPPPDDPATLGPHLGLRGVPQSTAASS

[12] = target: Protein kinase C gamma type (Homo sapiens, UniProt P05129); format: functional
[13] = target: Inhibitor of nuclear factor kappa-B kinase subunit beta (Homo sapiens, UniProt O14920); format: functional
[14] = target: Serine/threonine-protein kinase PAK 1 (Homo sapiens, UniProt Q13153); format: functional
[15] = target: Serine/threonine-protein kinase MRCK alpha (Homo sapiens, UniProt Q5VT25); format: functional
[16] = target: RAC-gamma serine/threonine-protein kinase (Homo sapiens, UniProt Q9Y243); format: functional
[17] = target: Serine/threonine-protein kinase Chk2 (Homo sapiens, UniProt O96017); format: functional;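 further: CHEK2 entry within a kinome-wide screening panel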
[18] = target: Tyrosine-protein kinase ITK/TSK (Homo sapiens, UniProt Q08881); format: functional;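 further: affinity for ITK measured as one member of a broad kinase panel profiling binding across the kinome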
[19] = target: MAP/microtubule affinity-regulating kinase 3 (Homo sapiens, UniProt P27448); format: functional;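 further: MARK3 affinity measured as one member of a kinome panel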
[20] = target: Serine/threonine-protein kinase 3 (Homo sapiens, UniProt Q13188); format: functional;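 further: measured as one member of a kinome-wide kinase panel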
Sequence of Serine/threonine-protein kinase 3 (Q13188 whole entry): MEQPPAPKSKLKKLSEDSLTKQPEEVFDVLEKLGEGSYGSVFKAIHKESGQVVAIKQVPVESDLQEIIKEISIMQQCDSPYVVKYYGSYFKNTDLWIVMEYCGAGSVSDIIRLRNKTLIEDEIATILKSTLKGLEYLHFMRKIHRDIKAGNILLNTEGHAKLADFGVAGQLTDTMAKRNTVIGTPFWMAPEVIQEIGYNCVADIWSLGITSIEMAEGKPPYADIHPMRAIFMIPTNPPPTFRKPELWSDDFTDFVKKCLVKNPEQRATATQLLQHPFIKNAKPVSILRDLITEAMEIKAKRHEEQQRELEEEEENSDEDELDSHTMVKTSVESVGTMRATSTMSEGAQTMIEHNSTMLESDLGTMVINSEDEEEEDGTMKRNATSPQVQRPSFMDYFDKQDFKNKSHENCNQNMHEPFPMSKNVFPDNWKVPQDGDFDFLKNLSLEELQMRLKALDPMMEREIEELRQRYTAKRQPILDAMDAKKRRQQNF

Sequence of Mitochondrial peptide methionine sulfoxide reductase (P54149 whole entry): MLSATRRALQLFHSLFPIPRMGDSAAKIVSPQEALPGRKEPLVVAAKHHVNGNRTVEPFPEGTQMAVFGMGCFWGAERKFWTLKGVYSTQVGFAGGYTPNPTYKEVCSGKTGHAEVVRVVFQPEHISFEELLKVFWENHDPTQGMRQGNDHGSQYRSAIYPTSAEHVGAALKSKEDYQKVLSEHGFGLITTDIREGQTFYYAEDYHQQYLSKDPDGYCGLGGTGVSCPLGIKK

For `O=C1C=C(NCc2ccccc2)c2ccccc2C1=O`, the EC50 [1] was 63.3 µM (inactive).
With `O=C(O)c1[nH]c2ccccc2c1C(c1cc(Cl)cc([N+](=O)[O-])c1O)c1c(C(=O)O)[nH]c2ccccc12` the AC50 (ORF 73) was 88.1 µM (active), the IC50 [2] was > 122 µM (inactive) and the EC50 [3] was 9.16 µM (active).
In the case of `Cc1cc(=O)[nH]nc1-c1ccc(NC(=O)Nc2cc(C(F)(F)F)ccc2F)c(Cl)c1`, the Ki [4] was > 5.01 µM (inactive), the Ki [5] was > 3.16 µM (inactive) and the Ki [6] was 0.2 µM (active). For the same molecule, the Ki [7] was 0.158 µM (active), the Ki [8] was > 3.16 µM (inactive) and the Ki [9] was > 2.51 µM (inactive). The Ki [10] was > 3.16 µM (inactive) and the Ki [11] was > 2.51 µM (inactive).
For `CCOC(=O)c1cn(-c2ccc(O)cc2C)c2cc(-c3ccncc3)ccc2c1=O`, the Ki [12] was > 7.94 µM (inactive), the Ki [13] was > 3.16 µM (inactive) and the Ki [14] was > 10 µM (inactive). The Ki [15] was 0.251 µM (active), the Ki [16] was > 10 µM (inactive) and the Ki [17] was > 10 µM (inactive). For the same molecule, the Ki [18] was > 1.58 µM (inactive), the Ki [19] was > 6.31 µM (inactive) and the Ki [20] was > 7.94 µM (inactive).
